pEC50: −log10 of the molar value.
What was measured:
[1] = test system: HEK293 clonal cell line overexpressing APOL1 G1; experiment: APOL1 G1 HEK293 cell rescue assay (Example B3); type: cell-based; conditions: geometric mean of at least 2 runs, † = single run, ¥ = concentration at 50% rescue estimated (no sigmoidal curve)
Procedure, shortened: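 HEK293 clonal line overexpressing APOL1 G1; EC50 is half-maximal reversal of APOL1-induced cell death. Values are the geometric mean of ≥2 runs on separate days, each run the average of duplicate wells. Where no sigmoidal curve could be fitted, the concentration giving 50% rescue was estimated.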

APOL1 G2 = target: T1, APOL1 G2 (Homo sapiens, UniProt O14791, DEL388-389); experiment: APOL1-mediated calcium transport (calcium influx) assay, HEK T-REx/GCaMP6f/APOL1 G2 K6.3 cells, FLIPR TETRA; type: cell-based; conditions: prevention of calcium influx; geometric mean of at least 2 assay runs; † = average of a technical replicate from a single assay run
T1 construct: expressed in transfected cells; host or cells: HEK293 T-REx clonal line stably expressing GCaMP6f (HEK T-REx/GCaMP6f/APOL1 G2 K6.3), doxycycline induced
T1 sequence (O14791 with tags, fused parts or gaps DEL388-389): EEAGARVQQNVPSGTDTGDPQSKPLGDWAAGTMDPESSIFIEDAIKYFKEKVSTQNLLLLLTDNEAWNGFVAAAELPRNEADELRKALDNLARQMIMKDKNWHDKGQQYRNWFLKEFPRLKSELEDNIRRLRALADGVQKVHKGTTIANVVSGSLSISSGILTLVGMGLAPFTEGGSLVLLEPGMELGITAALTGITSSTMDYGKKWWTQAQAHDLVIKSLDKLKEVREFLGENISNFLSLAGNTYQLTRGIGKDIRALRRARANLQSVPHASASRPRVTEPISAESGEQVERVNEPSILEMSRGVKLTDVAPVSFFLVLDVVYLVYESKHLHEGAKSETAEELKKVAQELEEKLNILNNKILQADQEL
Procedure, shortened: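 A HEK293 T-REx clone stably expressing GCaMP6f had APOL1 G2 induced with doxycycline (20 ng/mL solution added) for 6 h. Cells were then washed into Ca2+-free Tyrode's buffer (pH 7.4) and preincubated with compounds (duplicate 8-point) for 10 min at room temperature. Ca2+ injection to 5 mM final produced FLIPR GCaMP fluorescence, giving AC50 for influx inhibition (geometric mean, ≥2 runs).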

[2] = Homo sapiens, HEK293, HEK293 clonal line overexpressing APOL1 G1
[3] = HEK293 clonal line overexpressing APOL1 G1

Compound	pEC50 [1, 2]	pEC50 [1, 3]	AC50 (APOL1 G2)
CC(c1ncc(OCCN2CCC3(CC2)C(=O)Nc2ccc(Cl)cc23)cn1)S(C)(=O)=O (single isomer, unassigned) [Compound 2, 5-chloro-1′-[2-({2-[(1S) or (1R)-1-methanesulfonylethyl]pyrimidin-5-yl}oxy)ethyl]-1,2-dihydrospiro[indole-3,4′-piperidin]-2-one]	6.46		
CC(c1ncc(OCCN2CCC3(CC2)C(=O)Nc2ccc(Cl)cc23)cn1)S(C)(=O)=O (single isomer, unassigned) [Compound 3, 5-chloro-1′-[2-({2-[(1R) or (1S)-1-methanesulfonylethyl]pyrimidin-5-yl}oxy)ethyl]-1,2-dihydrospiro[indole-3,4′-piperidin]-2-one]		6.59	
CC(O)c1ncc(OCCN2CCC3(CC2)C(=O)Nc2ccc(C#N)cc23)cc1C(F)(F)F (single isomer, unassigned) [Compound 376, 1′-[2-({6-[(1S) or (1R)-1-hydroxyethyl]-5-(trifluoromethyl)pyridin-3-yl}oxy)ethyl]-2-oxo-1,2-dihydrospiro[indole-3,4′-piperidine]-5-carbonitrile]	6.89		
CC(O)c1ncc(OCCN2CCC3(CC2)C(=O)Nc2ccc(C#N)cc23)cc1C(F)(F)F (single isomer, unassigned) [Compound 377, 1′-[2-({6-(1S) or (1R)-1-hydroxyethyl]-5-(trifluoromethyl)pyridin-3-yl}oxy)ethyl]-2-oxo-1,2-dihydrospiro[indole-3,4′-piperidine]-5-carbonitrile]		6.76	
CS(=O)(=O)C1(c2ncc(OCCN3CCC4(CC3)C(=O)Nc3ccc(C(F)F)cc34)cn2)CC1 [Compound 5, 5-(difluoromethyl)-1′-(2-{[2-(1-methanesulfonylcyclopropyl)pyrimidin-5-yl]oxy}ethyl)-1,2-dihydrospiro[indole-3,4′-piperidin]-2-one]	6.53		
CS(=O)(=O)C1(c2ncc(OCCN3CCC4(CC3)C(=O)Nc3ccc(OC(F)F)cc34)cn2)CC1 [Compound 6, 5-(difluoromethoxy)-1′-(2-{[2-(1-methanesulfonylcyclopropyl)pyrimidin-5-yl]oxy}ethyl)-1,2-dihydrospiro[indole-3,4′-piperidin]-2-one]	6.60		
O=C1CCc2cc(OCCN3CCC4(CC3)C(=O)Nc3ccc(Cl)cc34)ccc2N1 [Compound 82, 5-chloro-1′-{2-[(2-oxo-1,2,3,4-tetrahydroquinolin-6-yl)oxy]ethyl}-1,2-dihydrospiro[indole-3,4′-piperidin]-2-one]	6.60		1050 nM
CS(=O)(=O)C1(c2c(F)cc(OCCN3CCC4(CC3)C(=O)Nc3ccc(C#N)cc34)cc2F)COC1 [Compound 84, 1′-{2-[3,5-difluoro-4-(3-methanesulfonyloxetan-3-yl)phenoxy]ethyl}-2-oxo-1,2-dihydrospiro[indole-3,4′-piperidine]-5-carbonitrile]	6.63		1450 nM
O=C1Nc2ccc(Cl)cc2C12CCN(CCOc1ccc3c(cnn3[C@H]3C[C@@H](O)C3)c1)CC2 [Compound 85, 5-chloro-1′-[2-({1-[(cis)-3-hydroxycyclobutyl]-1H-indazol-5-yl}oxy)ethyl]-1,2-dihydrospiro[indole-3,4′-piperidin]-2-one]	6.80		564 nM
O=C1Nc2ccc(Cl)cc2C12CCN(CCOc1ccc3c(cnn3[C@H]3C[C@H](O)C3)c1)CC2 [Compound 86, 5-chloro-1′-[2-({1-[(trans)-3-hydroxycyclobutyl]-1H-indazol-5-yl}oxy)ethyl]-1,2-dihydrospiro[indole-3,4′-piperidin]-2-one]	6.90		539 nM
O=C1Nc2ccc(Cl)cc2C12CCN(CCOc1ccc3[nH]ncc3c1)CC2 [Compound 87, 5-chloro-1′-[2-(2H-indazol-5-yloxy)ethyl]-1,2-dihydrospiro[indole-3,4′-piperidin]-2-one]	6.55		375 nM
Cn1c(=O)[nH]c2cc(OCCN3CCC4(CC3)C(=O)Nc3ccc(Cl)cc34)ccc21 [Compound 88, 5-chloro-1′-{2-[(1-methyl-2-oxo-2,3-dihydro-1H-1,3-benzodiazol-5-yl)oxy]ethyl}-1,2-dihydrospiro[indole-3,4′-piperidin]-2-one]	6.36		698 nM
CS(=O)(=O)c1c(F)cc(OCCN2CCC3(CC2)C(=O)Nc2ccc(Cl)cc23)cc1F [Compound 89, 5-chloro-1′-[2-(3,5-difluoro-4-methanesulfonylphenoxy)ethyl]-1,2-dihydrospiro[indole-3,4′-piperidin]-2-one]	6.86		463 nM
CS(=O)(=O)c1c(F)cc(OCCN2CCC3(CC2)C(=O)Nc2ccc(C#N)cc23)cc1F [Compound 90, 1′-[2-(3,5-difluoro-4-methanesulfonylphenoxy)ethyl]-2-oxo-1,2-dihydrospiro[indole-3,4′-piperidine]-5-carbonitrile]	6.23		973 nM
COC(=O)C1(S(=O)(=O)c2ccc(OCCN3CCC4(CC3)C(=O)Nc3ccc(Cl)cc34)cc2)CC1 [Compound 91, methyl 1-[4-(2-{5-chloro-2-oxo-1,2-dihydrospiro[indole-3,4′-piperidin]-1′-yl}ethoxy)benzenesulfonyl]cyclopropane-1-carboxylate]	7.00		739 nM
CC1(S(=O)(=O)c2ccc(OCCN3CCC4(CC3)C(=O)Nc3ccc(Cl)cc34)cc2)COC1 [Compound 92, 5-chloro-1′-(2-{4-[(3-methyloxetan-3-yl)sulfonyl]phenoxy}ethyl)-1,2-dihydrospiro[indole-3,4′-piperidin]-2-one]	7.00		761 nM
CC1(S(=O)(=O)c2ccc(OCCN3CCC4(CC3)C(=O)Nc3ccc(C#N)cc34)cc2)COC1 [Compound 93, 1′-(2-{4-[(3-methyloxetan-3-yl)sulfonyl]phenoxy}ethyl)-2-oxo-1,2-dihydrospiro[indole-3,4′-piperidine]-5-carbonitrile]	6.64		951 nM
CS(=O)(=O)N1CCc2cc(OCCN3CCC4(CC3)C(=O)Nc3ccc(Cl)cc34)ccc2C1 [Compound 94, 5-chloro-1′-{2-[(2-methanesulfonyl-1,2,3,4-tetrahydroisoquinolin-6-yl)oxy]ethyl}-1,2-dihydrospiro[indole-3,4′-piperidin]-2-one]	6.68		794 nM
CN1C(=O)CCc2cc(OCCN3CCC4(CC3)C(=O)Nc3ccc(C#N)cc34)ccc21 [Compound 95, 1′-{2-[(1-methyl-2-oxo-1,2,3,4-tetrahydroquinolin-6-yl)oxy]ethyl}-2-oxo-1,2-dihydrospiro[indole-3,4′-piperidine]-5-carbonitrile]	6.34		655 nM
O=C1CCc2cc(OCCN3CCC4(CC3)C(=O)Nc3ccc(Cl)cc34)cnc2N1[C@H]1C[C@H](O)C1 [Compound 267, 5-chloro-1′-[2-({7-oxo-8-[(trans)-3-hydroxycyclobutyl]-5,6,7,8-tetrahydro-1,8-naphthyridin-3-yl}oxy)ethyl]-1,2-dihydrospiro[indole-3,4′-piperidin]-2-one]	6.86		
CS(=O)(=O)C1(c2ccc(OCCN3CCC4(CC3)C(=O)Nc3ccc(Cl)cc34)cc2)CC(O)C1 (stereo not drawn) [Compound 269, 5-chloro-1′-(2-{4-[(cis) or (trans)-3-hydroxy-1-methanesulfonylcyclobutyl]phenoxy}ethyl)-1,2-dihydrospiro[indole-3,4′-piperidin]-2-one]		6.49	
CS(=O)(=O)C1(c2ccc(OCCN3CCC4(CC3)C(=O)Nc3ccc(Cl)cc34)cc2)CC(O)C1 (stereo not drawn) [Compound 270, 5-chloro-1′-(2-{4-[(trans) or (cis)-3-hydroxy-1-methanesulfonylcyclobutyl]phenoxy}ethyl)-1,2-dihydrospiro[indole-3,4′-piperidin]-2-one]		7.22	
C[C@]1(O)C[C@@H](n2c(=O)cnc3cc(OCCN4CCC5(CC4)C(=O)Nc4ccc(Cl)cc45)cnc32)C1 [Compound 358, 5-chloro-1′-[2-({3-oxo-4-[(cis)-3-hydroxy-3-methylcyclobutyl]-3H,4H-pyrido[2,3-b]pyrazin-7-yl}oxy)ethyl]-1,2-dihydrospiro[indole-3,4′-piperidin]-2-one]	6.95		
CC1(O)CN(c2ncc(OCCN3CCC4(CC3)C(=O)Nc3ccc(C(F)F)cc34)cn2)C1 [Compound 395, 5-(difluoromethyl)-1′-(2-{[2-(3-hydroxy-3-methylazetidin-1-yl)pyrimidin-5-yl]oxy}ethyl)-1,2-dihydrospiro[indole-3,4′-piperidin]-2-one]	6.80		

— patent US12344610B2, “APOL1 inhibitors and methods of use” (Maze Therapeutics, Inc., priority 2022, dated 2025)
